# According to US6458862B1, “Foaming agents” (priority 1998, dated 2002):
# How the values were obtained:
# rat [1] = experiment: Acute toxicity in the rat by inhalation, LD50; type: in vivo; settings: 4 hours
# rat [2] = experiment: Acute toxicity in the oral rat, LD50; type: in vivo
# Inflammability in air = type: physicochemical; settings: marked § flammable
SMILES,"Acute toxicity in the rat by inhalation, LD50 (rat [1]) [ppmv/4 hours]","Acute toxicity in the oral rat, LD50 (rat [2]) [ppmv/4 hours]","Inflammability in air, % volume (Inflammability in air)"
"FC(Cl)(Cl)Cl [CFC 11, trichloro-fluoromethane]",26200,>1000,
"FC(F)OC(F)(F)C(F)(F)OC(F)F [HCF2OCF2CF2OCF2H, 1-difluoromethoxy-1,1,2,2-tetrafluoroethyl difluoromethyl ether]",>32000,>5000,
"FC(F)OC(F)(F)OC(F)F [HCF2OCF2OCF2H, difluoromethoxy-bis(difluoromethyl ether)]",>32000,>5000,
"CC(F)(Cl)Cl [HCFC 141b, 1,1-dichloro-1-fluoroethane]",62000,>5000,7.6-17.7§ % volume
